In PubChem BioAssay (NCI):
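Five compound concentrations were applied to cells in 96-well plates for 48 hours; endpoints were derived by simple linear interpolation of the resulting dose-response curve. TGI: concentration producing complete growth inhibition.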

Key:
Assay in all cases: DTP human tumour cell line panel, 48 h
SR leukemia = tested on: SR leukemia
HCT-15 colon = tested on: HCT-15 colon
OVCAR-4 ovarian = tested on: OVCAR-4 ovarian
MDA-MB-435 = tested on: MDA-MB-435
KM12 colon = tested on: KM12 colon
SNB-19 CNS = tested on: SNB-19 CNS
TK-10 renal = tested on: TK-10 renal
OVCAR-3 ovarian = tested on: OVCAR-3 ovarian
UACC-257 melanoma = tested on: UACC-257 melanoma
MALME-3M melanoma = tested on: MALME-3M melanoma
RXF 393 renal = tested on: RXF 393 renal
IGROV1 ovarian = tested on: IGROV1 ovarian
HT29 colon = tested on: HT29 colon
T-47D breast = tested on: T-47D breast
SW-620 colon = tested on: SW-620 colon
ACHN renal = tested on: ACHN renal
OVCAR-5 ovarian = tested on: OVCAR-5 ovarian
SK-OV-3 ovarian = tested on: SK-OV-3 ovarian
BT-549 breast = tested on: BT-549 breast
U251 CNS = tested on: U251 CNS
786-0 renal = tested on: 786-0 renal
HS 578T breast = tested on: HS 578T breast
NCI-H226 lung = tested on: NCI-H226 lung
M14 melanoma = tested on: M14 melanoma
HCT-116 colon = tested on: HCT-116 colon
RPMI-8226 leukemia = tested on: RPMI-8226 leukemia
DU-145 prostate = tested on: DU-145 prostate
SK-MEL-5 melanoma = tested on: SK-MEL-5 melanoma
LOX IMVI melanoma = tested on: LOX IMVI melanoma
A549 NSCLC = tested on: A549 NSCLC
OVCAR-8 ovarian = tested on: OVCAR-8 ovarian
MDA-N = tested on: MDA-N
CCRF-CEM leukemia = tested on: CCRF-CEM leukemia
NCI-H522 lung = tested on: NCI-H522 lung
NCI-H23 lung = tested on: NCI-H23 lung
K-562 leukemia = tested on: K-562 leukemia
CAKI-1 renal = tested on: CAKI-1 renal
SF-268 CNS = tested on: SF-268 CNS
MDA-MB-231 breast = tested on: MDA-MB-231 breast
NCI/ADR-RES ovarian = tested on: NCI/ADR-RES ovarian
SK-MEL-2 melanoma = tested on: SK-MEL-2 melanoma
NCI-H460 lung = tested on: NCI-H460 lung
HOP-92 NSCLC = tested on: HOP-92 NSCLC
SF-295 CNS = tested on: SF-295 CNS
MOLT-4 leukemia = tested on: MOLT-4 leukemia
PC-3 prostate = tested on: PC-3 prostate
HL-60(TB) leukemia = tested on: HL-60(TB) leukemia
UO-31 renal = tested on: UO-31 renal
SF-539 CNS = tested on: SF-539 CNS
SN12C renal = tested on: SN12C renal
UACC-62 melanoma = tested on: UACC-62 melanoma
HOP-62 NSCLC = tested on: HOP-62 NSCLC
SNB-75 CNS = tested on: SNB-75 CNS
MCF7 breast = tested on: MCF7 breast
EKVX NSCLC = tested on: EKVX NSCLC
COLO 205 colon = tested on: COLO 205 colon
HCC-2998 colon = tested on: HCC-2998 colon
A498 renal = tested on: A498 renal
SK-MEL-28 melanoma = tested on: SK-MEL-28 melanoma

Structure (SMILES): Cc1ccc(O)c(Cc2nc3ccccc3nc2-c2cccc(Br)c2)c1
- TGI (SR leukemia): > 100 µM
- TGI (HCT-15 colon): 66.9 µM
- TGI (OVCAR-4 ovarian): > 100 µM
- TGI (MDA-MB-435): > 100 µM
- TGI (KM12 colon): > 100 µM
- TGI (SNB-19 CNS): 69.7 µM
- TGI (TK-10 renal): > 100 µM
- TGI (OVCAR-3 ovarian): > 100 µM
- TGI (UACC-257 melanoma): > 100 µM
- TGI (MALME-3M melanoma): > 100 µM
- TGI (RXF 393 renal): > 100 µM
- TGI (IGROV1 ovarian): > 100 µM
- TGI (HT29 colon): > 100 µM
- TGI (T-47D breast): > 100 µM
- TGI (SW-620 colon): > 100 µM
- TGI (ACHN renal): > 100 µM
- TGI (OVCAR-5 ovarian): > 100 µM
- TGI (SK-OV-3 ovarian): > 100 µM
- TGI (BT-549 breast): > 100 µM
- TGI (U251 CNS): > 100 µM
- TGI (786-0 renal): > 100 µM
- TGI (HS 578T breast): 66.8 µM
- TGI (NCI-H226 lung): > 100 µM
- TGI (M14 melanoma): > 100 µM
- TGI (HCT-116 colon): > 100 µM
- TGI (RPMI-8226 leukemia): > 100 µM
- TGI (DU-145 prostate): > 100 µM
- TGI (SK-MEL-5 melanoma): > 100 µM
- TGI (LOX IMVI melanoma): > 100 µM
- TGI (A549 NSCLC): > 100 µM
- TGI (OVCAR-8 ovarian): > 100 µM
- TGI (MDA-N): > 100 µM
- TGI (CCRF-CEM leukemia): > 100 µM
- TGI (NCI-H522 lung): > 100 µM
- TGI (NCI-H23 lung): > 100 µM
- TGI (K-562 leukemia): > 100 µM
- TGI (CAKI-1 renal): > 100 µM
- TGI (SF-268 CNS): > 100 µM
- TGI (MDA-MB-231 breast): > 100 µM
- TGI (NCI/ADR-RES ovarian): > 100 µM
- TGI (SK-MEL-2 melanoma): > 100 µM
- TGI (NCI-H460 lung): > 100 µM
- TGI (HOP-92 NSCLC): > 100 µM
- TGI (SF-295 CNS): > 100 µM
- TGI (MOLT-4 leukemia): 84.7 µM
- TGI (PC-3 prostate): > 100 µM
- TGI (HL-60(TB) leukemia): > 100 µM
- TGI (UO-31 renal): > 100 µM
- TGI (SF-539 CNS): > 100 µM
- TGI (SN12C renal): > 100 µM
- TGI (UACC-62 melanoma): > 100 µM
- TGI (HOP-62 NSCLC): > 100 µM
- TGI (SNB-75 CNS): > 100 µM
- TGI (MCF7 breast): > 100 µM
- TGI (EKVX NSCLC): > 100 µM
- TGI (COLO 205 colon): > 100 µM

Structure (SMILES): CC1CCC2c3c([nH]c4ccccc34)C3C(=O)N(C4CCCCC4)C(=O)C3C2C1 (stereo not given)
- TGI (SR leukemia): > 100 µM
- TGI (HCT-15 colon): > 100 µM
- TGI (MDA-MB-435): > 100 µM
- TGI (SNB-19 CNS): 32 µM
- TGI (TK-10 renal): 27.1 µM
- TGI (OVCAR-3 ovarian): 39.8 µM
- TGI (UACC-257 melanoma): > 100 µM
- TGI (MALME-3M melanoma): > 100 µM
- TGI (RXF 393 renal): 28.9 µM
- TGI (IGROV1 ovarian): 43.9 µM
- TGI (HT29 colon): > 100 µM
- TGI (HCC-2998 colon): > 100 µM
- TGI (SW-620 colon): > 100 µM
- TGI (ACHN renal): 27.8 µM
- TGI (OVCAR-5 ovarian): > 100 µM
- TGI (SK-OV-3 ovarian): 42.5 µM
- TGI (BT-549 breast): 32.7 µM
- TGI (U251 CNS): 25.3 µM
- TGI (786-0 renal): 19.6 µM
- TGI (HS 578T breast): 57.4 µM
- TGI (NCI-H226 lung): 36 µM
- TGI (M14 melanoma): 59.3 µM
- TGI (HCT-116 colon): 24.2 µM
- TGI (RPMI-8226 leukemia): > 100 µM
- TGI (DU-145 prostate): > 100 µM
- TGI (SK-MEL-5 melanoma): 36.1 µM
- TGI (LOX IMVI melanoma): > 100 µM
- TGI (A549 NSCLC): 50.3 µM
- TGI (OVCAR-8 ovarian): 42.5 µM
- TGI (MDA-N): > 100 µM
- TGI (CCRF-CEM leukemia): > 100 µM
- TGI (NCI-H522 lung): > 100 µM
- TGI (A498 renal): 37.9 µM
- TGI (NCI-H23 lung): 54.2 µM
- TGI (K-562 leukemia): 47.2 µM
- TGI (CAKI-1 renal): 30.8 µM
- TGI (SF-268 CNS): 29.8 µM
- TGI (MDA-MB-231 breast): 26.8 µM
- TGI (SK-MEL-28 melanoma): 34.1 µM
- TGI (NCI/ADR-RES ovarian): > 100 µM
- TGI (SK-MEL-2 melanoma): 40.3 µM
- TGI (NCI-H460 lung): > 100 µM
- TGI (HOP-92 NSCLC): 44.9 µM
- TGI (SF-295 CNS): 37.5 µM
- TGI (PC-3 prostate): > 100 µM
- TGI (HL-60(TB) leukemia): > 100 µM
- TGI (UO-31 renal): 37.2 µM
- TGI (SF-539 CNS): 62.6 µM
- TGI (SN12C renal): > 100 µM
- TGI (UACC-62 melanoma): 28.8 µM
- TGI (HOP-62 NSCLC): 32.7 µM
- TGI (SNB-75 CNS): 8.51 µM
- TGI (EKVX NSCLC): 39.6 µM
- TGI (COLO 205 colon): > 100 µM
